Results taken from publication PMC11610403 (Journal of thrombosis and haemostasis : JTH, 2024).

Columns and labels:
[1] = system: caspase-1 activity in activated THP-1 cells; assay: Caspase-1 activity assay in stimulated THP-1 cells; format: cell-based, human; conditions: P3 peptide in the presence of P1-47-66 (1.0 nM), Figure 2A
vascular leakage = conditions: given in vivo to mice in the absence of APC or any P1 peptide; cited from earlier work

Row | Substance | synergism with P1-47-66 for reducing caspase-1 activity [1] | vascular leakage in mice (vascular leakage)
1 | P3-42-65: PAR3-derived peptide comprising residues 42-65 (GAPPNSFEEFPFSALEGWTGATIT; UniProt O00254 42-65, looked up, fragment) | reduces caspase-1 activity synergistically | reduce vascular leakage
2 | P3-51-65: PAR3-derived peptide, residues 51-65 (FPFSALEGWTGATIT; UniProt O00254 51-65, looked up, fragment) | similarly showed synergism | –
